Experimental data as given in ChEMBL document CHEMBL5550132, “Structure-activity relationship in NOD2 agonistic muramyl dipeptides” (Eur J Med Chem, 2024).

Tests used:
Assay type in all cases: cell-based
Settings in all cases: filed as activator
[1] = molecular target: T1, Nuclear factor NF-kappa-B complex (Homo sapiens) (UniProt Q00653+P19838+Q04206); experiment: Activation of NF-kappaB in HEK-Blue hNOD2 cells assessed as fold change at 1000 nM incubated for 48 hrs by SEAP reporter assay
[2] = molecular target: T1, Nuclear factor NF-kappa-B complex (Homo sapiens); experiment: Activation of NF-kappaB in HEK-Blue hNOD2 cells assessed as fold change at 100 nM incubated for 48 hrs by SEAP reporter assay
[3] = molecular target: T1, Nuclear factor NF-kappa-B complex (Homo sapiens); experiment: Activation of NF-kappaB in HEK-Blue hNOD2 cells assessed as fold change at 10 nM incubated for 48 hrs by SEAP reporter assay
[4] = molecular target: Nucleotide-binding oligomerization domain-containing protein 2 (Homo sapiens, UniProt Q9HC29); experiment: Activation of NOD2 in HEK293T cells
[5] = molecular target: T1, Nuclear factor NF-kappa-B complex (Homo sapiens); experiment: Activation of NF-KappaB (unknown origin) expressed in HEK293T cells assessed as fold change at 20 uM

T1 sequence (P19838 whole entry, looked up): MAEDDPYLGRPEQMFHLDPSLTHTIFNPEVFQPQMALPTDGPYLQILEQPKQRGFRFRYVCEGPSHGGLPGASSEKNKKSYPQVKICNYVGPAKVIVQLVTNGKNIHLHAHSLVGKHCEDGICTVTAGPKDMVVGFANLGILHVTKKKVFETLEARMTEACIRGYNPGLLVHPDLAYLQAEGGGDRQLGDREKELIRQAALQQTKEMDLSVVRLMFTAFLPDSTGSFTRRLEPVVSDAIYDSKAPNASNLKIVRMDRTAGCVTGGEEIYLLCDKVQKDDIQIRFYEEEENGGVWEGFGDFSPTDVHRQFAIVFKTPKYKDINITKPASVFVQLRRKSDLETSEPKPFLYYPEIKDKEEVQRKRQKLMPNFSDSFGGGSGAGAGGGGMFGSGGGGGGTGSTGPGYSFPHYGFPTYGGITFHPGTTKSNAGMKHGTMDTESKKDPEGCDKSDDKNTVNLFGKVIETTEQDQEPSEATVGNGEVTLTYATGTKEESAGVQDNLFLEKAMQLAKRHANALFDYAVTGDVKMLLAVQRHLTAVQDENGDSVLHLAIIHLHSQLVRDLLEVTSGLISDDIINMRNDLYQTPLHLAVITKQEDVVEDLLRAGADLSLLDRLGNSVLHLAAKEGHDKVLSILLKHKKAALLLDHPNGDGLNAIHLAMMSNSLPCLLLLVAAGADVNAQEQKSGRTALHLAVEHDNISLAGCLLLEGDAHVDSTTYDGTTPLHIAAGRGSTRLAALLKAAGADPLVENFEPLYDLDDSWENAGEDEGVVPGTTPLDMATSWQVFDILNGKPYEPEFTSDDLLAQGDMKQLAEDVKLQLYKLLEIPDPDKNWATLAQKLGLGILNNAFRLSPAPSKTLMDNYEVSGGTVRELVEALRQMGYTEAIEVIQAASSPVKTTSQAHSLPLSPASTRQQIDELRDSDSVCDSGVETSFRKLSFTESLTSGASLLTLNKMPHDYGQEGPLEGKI
T1 sequence (Q00653 whole entry, looked up): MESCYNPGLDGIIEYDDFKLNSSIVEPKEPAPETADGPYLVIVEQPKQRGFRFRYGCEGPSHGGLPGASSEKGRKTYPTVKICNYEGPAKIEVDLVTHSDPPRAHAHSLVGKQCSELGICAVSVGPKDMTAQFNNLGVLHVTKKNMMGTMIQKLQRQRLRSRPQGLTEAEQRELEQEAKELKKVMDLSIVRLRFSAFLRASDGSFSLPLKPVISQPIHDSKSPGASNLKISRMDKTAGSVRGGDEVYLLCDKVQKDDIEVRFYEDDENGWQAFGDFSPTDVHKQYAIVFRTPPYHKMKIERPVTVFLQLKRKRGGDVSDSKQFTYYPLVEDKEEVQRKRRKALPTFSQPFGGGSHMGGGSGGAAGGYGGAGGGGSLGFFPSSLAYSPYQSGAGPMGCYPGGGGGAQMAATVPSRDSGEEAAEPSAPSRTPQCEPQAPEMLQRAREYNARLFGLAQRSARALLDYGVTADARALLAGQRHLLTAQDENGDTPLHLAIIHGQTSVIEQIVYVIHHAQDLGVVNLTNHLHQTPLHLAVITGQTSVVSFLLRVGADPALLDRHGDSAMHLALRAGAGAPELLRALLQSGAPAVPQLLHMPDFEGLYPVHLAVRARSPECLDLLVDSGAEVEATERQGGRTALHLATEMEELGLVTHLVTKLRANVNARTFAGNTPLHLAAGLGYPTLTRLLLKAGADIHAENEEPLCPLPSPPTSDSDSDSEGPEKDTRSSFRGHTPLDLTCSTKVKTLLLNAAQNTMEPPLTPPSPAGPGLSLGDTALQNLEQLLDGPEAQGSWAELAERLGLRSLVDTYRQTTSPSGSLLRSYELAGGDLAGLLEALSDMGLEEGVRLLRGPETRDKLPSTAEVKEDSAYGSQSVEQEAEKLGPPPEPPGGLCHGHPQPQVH
T1 sequence (Q04206 whole entry, looked up): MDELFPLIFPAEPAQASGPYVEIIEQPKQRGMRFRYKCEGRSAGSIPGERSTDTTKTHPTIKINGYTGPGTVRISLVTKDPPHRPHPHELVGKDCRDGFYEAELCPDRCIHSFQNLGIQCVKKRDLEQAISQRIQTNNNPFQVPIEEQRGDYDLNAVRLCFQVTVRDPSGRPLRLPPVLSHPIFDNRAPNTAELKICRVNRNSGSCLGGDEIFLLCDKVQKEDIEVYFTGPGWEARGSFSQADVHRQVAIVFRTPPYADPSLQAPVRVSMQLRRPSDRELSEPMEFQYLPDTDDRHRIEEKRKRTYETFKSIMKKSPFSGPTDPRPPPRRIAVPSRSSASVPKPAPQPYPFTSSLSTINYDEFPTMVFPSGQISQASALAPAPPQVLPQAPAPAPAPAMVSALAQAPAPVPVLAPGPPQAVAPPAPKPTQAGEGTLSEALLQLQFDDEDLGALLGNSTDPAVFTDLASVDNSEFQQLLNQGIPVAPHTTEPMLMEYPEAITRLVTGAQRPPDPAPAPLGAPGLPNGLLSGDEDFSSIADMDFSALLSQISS
Chain of Nucleotide-binding oligomerization domain-containing protein 2 (Q9HC29 whole entry, the tested form may be a part): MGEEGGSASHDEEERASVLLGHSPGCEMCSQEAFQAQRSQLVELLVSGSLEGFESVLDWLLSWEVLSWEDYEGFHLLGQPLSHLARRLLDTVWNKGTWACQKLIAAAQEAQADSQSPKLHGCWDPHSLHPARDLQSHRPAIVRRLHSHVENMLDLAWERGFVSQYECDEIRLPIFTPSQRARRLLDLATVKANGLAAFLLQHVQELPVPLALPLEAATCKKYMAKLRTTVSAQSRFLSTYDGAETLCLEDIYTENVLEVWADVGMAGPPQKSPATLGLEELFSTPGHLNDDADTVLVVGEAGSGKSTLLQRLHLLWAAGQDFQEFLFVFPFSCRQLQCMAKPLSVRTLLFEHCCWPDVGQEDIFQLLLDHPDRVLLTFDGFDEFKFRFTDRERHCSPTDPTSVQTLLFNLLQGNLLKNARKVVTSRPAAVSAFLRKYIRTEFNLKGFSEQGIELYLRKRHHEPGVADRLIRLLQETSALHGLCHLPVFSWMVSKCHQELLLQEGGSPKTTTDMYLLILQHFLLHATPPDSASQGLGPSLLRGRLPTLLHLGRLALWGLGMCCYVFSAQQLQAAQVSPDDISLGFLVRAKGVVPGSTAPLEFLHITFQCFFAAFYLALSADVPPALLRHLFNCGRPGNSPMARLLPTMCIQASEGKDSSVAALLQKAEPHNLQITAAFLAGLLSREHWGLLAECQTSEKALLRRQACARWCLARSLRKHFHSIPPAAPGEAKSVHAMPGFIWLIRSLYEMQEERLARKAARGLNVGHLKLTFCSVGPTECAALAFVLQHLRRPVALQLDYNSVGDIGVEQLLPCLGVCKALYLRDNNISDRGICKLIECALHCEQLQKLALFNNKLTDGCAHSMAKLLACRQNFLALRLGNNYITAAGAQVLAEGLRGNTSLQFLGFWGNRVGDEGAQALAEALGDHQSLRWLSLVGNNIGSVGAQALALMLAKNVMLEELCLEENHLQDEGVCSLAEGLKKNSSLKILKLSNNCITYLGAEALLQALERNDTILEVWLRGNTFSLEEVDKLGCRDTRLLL

| Structure (SMILES) | Activity [4] [mU] | fold change (FC) [5] | other results |
| --- | --- | --- | --- |
| COc1ccc(CC(=O)NCc2cn([C@H]3[C@H](O[C@H](C)C(=O)N[C@@H](C)C(=O)N[C@H](CCC(=O)O)C(N)=O)[C@@H](NC(C)=O)[C@H](O)O[C@@H]3CO)nn2)cc1 |  |  | fold change (FC) [1]: 1.55; fold change (FC) [2]: 1.15; fold change (FC) [3]: 1.1 |
| CNCc1cn([C@H]2[C@H](O[C@H](C)C(=O)N[C@@H](C)C(=O)N[C@H](CCC(=O)O)C(N)=O)[C@@H](NC(C)=O)[C@H](O)O[C@@H]2CO)nn1 |  |  | fold change (FC) [1]: 1; fold change (FC) [2]: 1.05; fold change (FC) [3]: 1.1 |
| COc1cccc(-c2cn([C@H]3[C@H](O[C@H](C)C(=O)N[C@@H](C)C(=O)N[C@H](CCC(=O)O)C(N)=O)[C@@H](NC(C)=O)[C@H](O)O[C@@H]3CO)nn2)c1 |  |  | fold change (FC) [1]: 1; fold change (FC) [2]: 1.05; fold change (FC) [3]: 1.1 |
| CCO[C@@H]1O[C@H](CO)[C@@H](O[C@@H]2O[C@H](CO)[C@@H](O[C@@H]3O[C@H](CO)[C@@H](O[C@@H]4O[C@H](CO)[C@@H](O)[C@H](O)[C@H]4NC(C)=O)[C@H](O[C@H](C)C(=O)N[C@@H](C)C(=O)N[C@H](CCC(=O)O)C(N)=O)[C@H]3NC(C)=O)[C@H](O)[C@H]2NC(C)=O)[C@H](O[C@H](C)C(=O)N[C@@H](C)C(=O)N[C@H](CCC(=O)O)C(N)=O)[C@H]1NC(C)=O | 80 |  |  |
| COc1ccc(CC(=O)NCc2cn([C@H]3[C@H](O[C@H](C)C(=O)N[C@@H](C)C(=O)N[C@H](CCC(=O)O)C(N)=O)[C@@H](NC(C)=O)[C@H](OCc4ccccc4)O[C@@H]3CO)nn2)cc1 |  |  | fold change (FC) [1]: 1.2; fold change (FC) [2]: 1.05; fold change (FC) [3]: 1.1 |
| C[C@H](NC(=O)[C@@H](C)O[C@H]1[C@H](O)[C@@H](CO)O[C@@H](OCc2ccccc2)[C@@H]1N=[N+]=[N-])C(=O)N[C@H](CCC(=O)OCc1ccccc1)C(N)=O |  | 0.11 |  |
| CC(=O)N[C@H]1[C@H](OCc2ccccc2)O[C@H](CO)[C@@H](N=[N+]=[N-])[C@@H]1O[C@H](C)C(=O)N[C@@H](C)C(=O)N[C@H](CCC(=O)O)C(N)=O |  |  | fold change (FC) [1]: 3.15; fold change (FC) [2]: 1.65; fold change (FC) [3]: 1.3 |
| CC(=O)N[C@@H]1[C@@H](O)[C@H](O[C@@H]2O[C@H](CO)[C@@H](O)[C@H](O[C@H](C)C(=O)N[C@@H](C)C(=O)N[C@H](CCC(=O)N[C@@H](CCCCN)C(=O)O)C(N)=O)[C@H]2NC(C)=O)[C@@H](CO)O[C@H]1O | 100 |  |  |
| C[C@H](NC(=O)[C@@H](C)O[C@H]1[C@H](O)[C@@H](CO)O[C@@H](O)[C@@H]1NC(=O)CCC(=O)O)C(=O)N[C@H](CCC(=O)O)C(N)=O |  | 2.3 |  |
| CC(=O)N[C@@H]1[C@@H](O)[C@H](O[C@@H]2O[C@H](CO)[C@@H](O)[C@H](O[C@H](C)C(=O)N[C@@H](C)C(=O)N[C@H](CCC(=O)O)C(N)=O)[C@H]2NC(C)=O)[C@@H](CO)O[C@H]1O | 900 |  |  |
| CCO[C@@H]1O[C@H](CO)[C@@H](O[C@@H]2O[C@H](CO)[C@@H](O[C@@H]3O[C@H](CO)[C@@H](O[C@@H]4O[C@H](CO)[C@@H](O)[C@H](O[C@H](C)C(=O)N[C@@H](C)C(=O)N[C@H](CCC(=O)N[C@@H](CCCCN)C(=O)N[C@H](C)C(=O)O)C(N)=O)[C@H]4NC(C)=O)[C@H](O)[C@H]3NC(C)=O)[C@H](O)[C@H]2NC(C)=O)[C@H](O[C@H](C)C(=O)N[C@@H](C)C(=O)N[C@H](CCC(=O)N[C@@H](CCCCN)C(=O)N[C@H](C)C(=O)O)C(N)=O)[C@H]1NC(C)=O | 0.09 |  |  |
| C[C@H](NC(=O)[C@@H](C)O[C@H]1[C@H](O)[C@@H](CO)O[C@@H](O)[C@@H]1NC(=O)CN=[N+]=[N-])C(=O)N[C@H](CCC(=O)O)C(N)=O |  | 1.8 |  |
| C[C@H](NC(=O)[C@@H](C)O[C@H]1[C@H](O)[C@@H](CO)O[C@@H](OCc2ccccc2)[C@@H]1N=[N+]=[N-])C(=O)N[C@H](CCC(=O)O)C(N)=O |  | 0.08 |  |
| C[C@H](NC(=O)[C@@H](C)O[C@H]1[C@H](O)[C@@H](CO)O[C@@H](O)[C@@H]1NC(=O)C(F)(F)F)C(=O)N[C@H](CCC(=O)O)C(N)=O |  | 1.9 |  |
| CC(=O)OCC(=O)N[C@@H]1[C@@H](O[C@H](C)C(=O)N[C@@H](C)C(=O)N[C@H](CCC(=O)O)C(N)=O)[C@H](O)[C@@H](CO)O[C@H]1O |  | 2.2 |  |
| CCO[C@@H]1O[C@H](CO)[C@@H](O[C@@H]2O[C@H](CO)[C@@H](O[C@@H]3O[C@H](CO)[C@@H](O[C@@H]4O[C@H](CO)[C@@H](O)[C@H](O[C@H](C)C(=O)N[C@@H](C)C(=O)N[C@H](CCC(=O)N[C@@H](CCCCN)C(=O)N[C@H](C)C(=O)N[C@H](C)C(=O)O)C(N)=O)[C@H]4NC(C)=O)[C@H](O)[C@H]3NC(C)=O)[C@H](O[C@H](C)C(=O)N[C@@H](C)C(=O)N[C@H](CCC(=O)N[C@@H](CCCCN)C(=O)N[C@H](C)C(=O)N[C@H](C)C(=O)O)C(N)=O)[C@H]2NC(C)=O)[C@H](O)[C@H]1NC(C)=O | 12.5 |  |  |
| COC(=O)CCC(=O)N[C@@H]1[C@@H](O[C@H](C)C(=O)N[C@@H](C)C(=O)N[C@H](CCC(=O)O)C(N)=O)[C@H](O)[C@@H](CO)O[C@H]1O |  | 2.4 |  |
| CCO[C@@H]1O[C@H](CO)[C@@H](O[C@@H]2O[C@H](CO)[C@@H](O[C@@H]3O[C@H](CO)[C@@H](O[C@@H]4O[C@H](CO)[C@@H](O)[C@H](O[C@H](C)C(=O)N[C@@H](C)C(=O)N[C@H](CCC(=O)O)C(N)=O)[C@H]4NC(C)=O)[C@H](O)[C@H]3NC(C)=O)[C@H](O[C@H](C)C(=O)N[C@@H](C)C(=O)N[C@H](CCC(=O)O)C(N)=O)[C@H]2NC(C)=O)[C@H](O)[C@H]1NC(C)=O | 800 |  |  |
| CCO[C@@H]1O[C@H](CO)[C@@H](O[C@@H]2O[C@H](CO)[C@@H](O[C@@H]3O[C@H](CO)[C@@H](O[C@@H]4O[C@H](CO)[C@@H](O)[C@H](O[C@H](C)C(=O)N[C@@H](C)C(=O)N[C@H](CCC(=O)N[C@@H](CCCCN)C(=O)O)C(N)=O)[C@H]4NC(C)=O)[C@H](O)[C@H]3NC(C)=O)[C@H](O[C@H](C)C(=O)N[C@@H](C)C(=O)N[C@H](CCC(=O)N[C@@H](CCCCN)C(=O)O)C(N)=O)[C@H]2NC(C)=O)[C@H](O)[C@H]1NC(C)=O | 30 |  |  |
| CCCCCCCCOC(=O)CC[C@@H](NC(=O)[C@H](C)NC(=O)[C@@H](C)O[C@H]1[C@H](O)[C@@H](CO)O[C@@H](OCc2ccccc2)[C@@H]1N=[N+]=[N-])C(N)=O |  | 0.04 |  |
| C[C@H](NC(=O)[C@@H](C)O[C@H]1[C@H](O)[C@@H](CO)O[C@@H](O)[C@@H]1NOC(=O)CCCC[C@@H]1SC[C@@H]2NC(=O)N[C@@H]21)C(=O)N[C@H](CCC(=O)O)C(N)=O |  | 2.5 |  |
| CCO[C@@H]1O[C@H](CO)[C@@H](O[C@@H]2O[C@H](CO)[C@@H](O[C@@H]3O[C@H](CO)[C@@H](O[C@@H]4O[C@H](CO)[C@@H](O)[C@H](O[C@H](C)C(=O)N[C@@H](C)C(=O)N[C@H](CCC(=O)N[C@@H](CCCCN)C(=O)O)C(N)=O)[C@H]4NC(C)=O)[C@H](O)[C@H]3NC(C)=O)[C@H](O)[C@H]2NC(C)=O)[C@H](O[C@H](C)C(=O)N[C@@H](C)C(=O)N[C@H](CCC(=O)N[C@@H](CCCCN)C(=O)O)C(N)=O)[C@H]1NC(C)=O | 0.5 |  |  |
| CC(=O)N[C@@H]1[C@@H](O[C@H](C)C(=O)N[C@@H](C)C(=O)N[C@H](CCC(=O)O)C(N)=O)[C@H](O[C@@H]2O[C@H](CO)[C@@H](O)[C@H](O)[C@H]2NC(C)=O)[C@@H](CO)O[C@H]1O | 1000 |  |  |
| CCCCCCCCCCCCCCOC(=O)CC[C@@H](NC(=O)[C@H](C)NC(=O)[C@@H](C)O[C@H]1[C@H](O)[C@@H](CO)O[C@@H](OCc2ccccc2)[C@@H]1N=[N+]=[N-])C(N)=O |  | 0.04 |  |
